Molecular target: T1, wild-type LRRK2 (Homo sapiens, UniProt Q5S007)
T1 construct: DNA tag for qPCR detection (not a peptide; the protein part that carries it is not described); made in house; host or cells: HEK 293 cells (the same paragraph also describes T7 phage grown in E. coli BL21)
Assay: Inhibitory activity against LRRK2: competition binding to ligand-affinity beads, DNA-tagged kinase quantitated by qPCR
Settings: % of ctrl; for remaining binding at 0.01 µM: 10 nM compound, read-out: LRRK2(WT) Remaining kinase activity(%) at 10 nM; for remaining binding at 0.05 µM: 50 nM compound, read-out: LRRK2(WT) Remaining kinase activity(%) at 50 nM
Experimental: Representative compounds synthesized in Example 1 were assayed for inhibitory activity against wild-type LRRK2 and mutant LRRK2 (G2019S), and the results are summarized in Tables 2 and 3. In brief, a T7 phase strain carrying the wild-type kinase consisting of amino acid residues from H970 to E2527 of human-derived LRRK2 (Accession no. NP_940980.3) or a T7 phase strain carrying the G2019S mutation kinase was infected into E. coli strain BL21 which was then grown until log phase. After infection with T7 phases (multiplicity of infection=0.4), the cells were cultured at 32° C. for 90-150 minutes while shaking. Then, E. coli lysates were centrifuged (6,000×g) and the supernatant was filtered through a 0.2-μm filter. The kinases were produced in HEK 293 cells. In this regard, DNA was tagged to obtain DNA-tagged kinases for qPCR detection. For use in analyzing the kinases, affinity resins were prepared by treating streptavidin-coated magnetic beads with biotinylated small molecule ligands at room temperature for 30 minutes. Then, the liganded beads were blocked with an excess of biotin and washed with a blocking buffer (SeaBlock (Pierce), 1% BSA, 0.05% Tween 20, 1 mM DTT) to remove unbound ligands and thus to reduce the binding of non-specific phages. […] After one hour of incubation, the affinity beads were washed with a wash buffer (1×PBS, 0.05% Tween 20), resuspended in an elution buffer (1×PBS, 0.05% Tween 20, 0.5 μM non-biotinylated affinity ligand), and incubated at room temperature for 30 minutes while shaking. Afterwards, concentrations of wild-type LRRK2 and mutant LRRK2 (G2019S) in the eluted samples were quantitated by qPCR. Activity values are expressed as percentages relative to the control (% of ctrl). The compounds used in the activity assay were prepared into 40× stocks in 100% DMSO. The stocks were directly diluted during analysis procedures.
Table 2 includes inhibitory activities of the representative compounds of the present disclosure at 100 nM against wild-type LRRK2 and mutant LRRK2 (G2019S) while Table 3 includes inhibitory activities of the representative compounds at 10 nM and 50 nM against wild-type LRRK2. (+++ less than 10%; ++ less than 30%; + less than 50%; −50% or higher)

T1 sequence (Q5S007 970-2527): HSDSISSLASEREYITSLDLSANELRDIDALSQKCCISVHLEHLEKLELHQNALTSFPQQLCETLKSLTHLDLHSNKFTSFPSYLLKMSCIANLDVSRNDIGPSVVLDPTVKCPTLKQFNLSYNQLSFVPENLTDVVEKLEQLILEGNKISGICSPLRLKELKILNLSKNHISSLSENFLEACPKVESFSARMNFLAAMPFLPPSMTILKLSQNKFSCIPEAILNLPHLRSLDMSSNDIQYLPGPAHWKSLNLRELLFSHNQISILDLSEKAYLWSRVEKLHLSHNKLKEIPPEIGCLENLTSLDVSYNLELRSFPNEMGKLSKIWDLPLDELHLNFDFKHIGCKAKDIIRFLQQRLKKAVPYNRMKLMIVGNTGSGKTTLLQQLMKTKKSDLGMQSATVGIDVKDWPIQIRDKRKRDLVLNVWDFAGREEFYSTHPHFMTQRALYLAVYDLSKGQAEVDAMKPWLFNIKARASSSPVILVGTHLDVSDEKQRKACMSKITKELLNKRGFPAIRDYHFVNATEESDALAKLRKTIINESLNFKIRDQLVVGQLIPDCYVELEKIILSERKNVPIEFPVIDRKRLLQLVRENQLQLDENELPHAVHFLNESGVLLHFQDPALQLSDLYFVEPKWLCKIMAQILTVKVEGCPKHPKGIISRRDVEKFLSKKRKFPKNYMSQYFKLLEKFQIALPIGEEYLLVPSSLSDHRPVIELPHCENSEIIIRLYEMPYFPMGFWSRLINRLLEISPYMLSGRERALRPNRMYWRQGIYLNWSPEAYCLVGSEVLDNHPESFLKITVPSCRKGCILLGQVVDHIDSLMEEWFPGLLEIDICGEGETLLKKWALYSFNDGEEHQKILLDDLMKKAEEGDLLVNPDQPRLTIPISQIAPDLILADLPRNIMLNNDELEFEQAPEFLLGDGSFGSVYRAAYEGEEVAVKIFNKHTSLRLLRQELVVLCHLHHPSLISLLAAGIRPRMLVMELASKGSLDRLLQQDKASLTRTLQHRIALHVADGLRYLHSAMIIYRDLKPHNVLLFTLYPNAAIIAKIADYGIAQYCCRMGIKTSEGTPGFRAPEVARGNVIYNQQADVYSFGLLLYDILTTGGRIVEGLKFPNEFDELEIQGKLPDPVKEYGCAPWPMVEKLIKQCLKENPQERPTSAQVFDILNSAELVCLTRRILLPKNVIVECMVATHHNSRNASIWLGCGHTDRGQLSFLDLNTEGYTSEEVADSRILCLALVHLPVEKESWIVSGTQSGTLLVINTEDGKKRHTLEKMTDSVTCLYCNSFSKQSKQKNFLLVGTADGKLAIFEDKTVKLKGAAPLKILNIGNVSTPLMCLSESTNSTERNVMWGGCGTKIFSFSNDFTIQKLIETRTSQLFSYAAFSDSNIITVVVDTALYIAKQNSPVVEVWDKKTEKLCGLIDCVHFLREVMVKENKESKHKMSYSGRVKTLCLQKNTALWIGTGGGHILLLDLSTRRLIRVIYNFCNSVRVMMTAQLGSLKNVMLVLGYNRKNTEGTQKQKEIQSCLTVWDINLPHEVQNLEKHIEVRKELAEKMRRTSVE

COc1cc(C(=O)NCc2ccc(N)cc2)ccc1Nc1ncc(Cl)c(-c2cnn(C(C)C)c2)n1 [Compound 183, N-(4-aminobenzyl)-4-((5-chloro-4-(1-isopropyl-1H-pyrazol-4-yl)pyrimidin-2-yl)amino)-3-methoxybenzamide]
remaining binding at 0.01 µM: ≥ 50% | remaining binding at 0.05 µM: < 30%

COc1ccccc1CNC(=O)c1ccc(Nc2ncc(Cl)c(-c3cnn(C(C)C)c3)n2)c(OC)c1 [Compound 154, 4-((5-chloro-4-(1-isopropyl-1H-pyrazol-4-yl)pyrimidin-2-yl)amino)-3-methoxy-N-(2-methoxybenzyl)benzamide]
remaining binding at 0.01 µM: ≥ 50% | remaining binding at 0.05 µM: < 30%

COc1ccc(CNC(=O)c2ccc(Nc3ncc(Cl)c(-c4cnn(C(C)C)c4)n3)c(OC)c2)cc1 [Compound 203, 4-((5-chloro-4-(1-isopropyl-1H-pyrazol-4-yl)pyrimidin-2-yl)amino)-3-methoxy-N-(4-methoxybenzyl)benzamide]
remaining binding at 0.01 µM: ≥ 50% | remaining binding at 0.05 µM: < 50%

Cc1cc(C(=O)N2CCN(C)CC2)ccc1Nc1ncc(Cl)c(-c2cnn(C(C)C)c2)n1 [Compound 109, (4-((5-chloro-4-(1-isopropyl-1H-pyrazol-4-yl)pyrimidin-2-yl)amino)-3-methylphenyl)(4-methylpiperazin-1-yl)methanone]
remaining binding at 0.01 µM: ≥ 50% | remaining binding at 0.05 µM: < 30%

COc1cc(C(=O)NCCCn2ccnc2)ccc1Nc1ncc(Cl)c(-c2cnn(C(C)C)c2)n1 [Compound 197, N-(3-(1H-imidazol-1-yl)propyl)-4-((5-chloro-4-(1-isopropyl-1H-pyrazol-4-yl)pyrimidin-2-yl)amino)-3-methoxybenzamide]
remaining binding at 0.01 µM: ≥ 50% | remaining binding at 0.05 µM: < 50%

COc1cc(C(=O)N2CCC(C(C)(C)O)CC2)ccc1Nc1ncc(Cl)c(-c2cnn(C(C)C)c2)n1 [Compound 70, (4-((5-chloro-4-(1-isopropyl-1H-pyrazol-4-yl)pyrimidin-2-yl)amino)-3-methoxyphenyl)(4-(2-hydroxypropan-2-yl)piperidin-1-yl)methanone]
remaining binding at 0.01 µM: < 50% | remaining binding at 0.05 µM: < 30%

CCN(C)C(=O)c1ccc(Nc2ncc(Cl)c(-c3cnn(C(C)C)c3)n2)c(OC)c1 [Compound 202, 4-((5-chloro-4-(1-isopropyl-1H-pyrazol-4-yl)pyrimidin-2-yl)amino)-N-ethyl-3-methoxy-N-methylbenzamide]
remaining binding at 0.01 µM: ≥ 50% | remaining binding at 0.05 µM: < 50%

COc1cc(C(=O)Nc2cccc(S(N)(=O)=O)c2)ccc1Nc1ncc(Cl)c(-c2cnn(C(C)C)c2)n1 [Compound 191, 4-((5-chloro-4-(1-isopropyl-1H-pyrazol-4-yl)pyrimidin-2-yl)amino)-3-methoxy-N-(3-sulfamoylphenyl)benzamide]
remaining binding at 0.01 µM: ≥ 50% | remaining binding at 0.05 µM: < 30%

COc1cc(C(=O)NC2CCC(O)CC2)ccc1Nc1ncc(Cl)c(-c2cnn(C(C)C)c2)n1 (stereo not shown) [Compound 91, 4-((5-chloro-4-(1-isopropyl-1H-pyrazol-4-yl)pyrimidin-2-yl)amino)-N-((1r,4r)-4-hydroxycyclohexyl)-3-methoxybenzamide]
remaining binding at 0.01 µM: ≥ 50% | remaining binding at 0.05 µM: < 30%

COc1cc(C(=O)NCc2ccc(C)cc2)ccc1Nc1ncc(Cl)c(-c2cnn(C(C)C)c2)n1 [Compound 126, 4-((5-chloro-4-(1-isopropyl-1H-pyrazol-4-yl)pyrimidin-2-yl)amino)-3-methoxy-N-(4-methylbenzyl)benzamide]
remaining binding at 0.01 µM: ≥ 50% | remaining binding at 0.05 µM: < 50%

COc1cc(C(=O)NCc2ccc(Cl)nc2)ccc1Nc1ncc(Cl)c(-c2cnn(C(C)C)c2)n1 [Compound 168, 4-((5-chloro-4-(1-isopropyl-1H-pyrazol-4-yl)pyrimidin-2-yl)amino)-N-((6-chloropyridin-3-yl)methyl)-3-methoxybenzamide]
remaining binding at 0.01 µM: ≥ 50% | remaining binding at 0.05 µM: < 50%

COc1cc(C(=O)N2CCC3(CC2)COC3)ccc1Nc1ncc(Cl)c(-c2cnn(C(C)C)c2)n1 [Compound 71, (4-((5-chloro-4-(1-isopropyl-1H-pyrazol-4-yl)pyrimidin-2-yl)amino)-3-methoxyphenyl)(2-oxa-7-azaspiro[3.5]nonan-7-yl)methanone]
remaining binding at 0.01 µM: < 50% | remaining binding at 0.05 µM: < 30%

COc1cc(C(=O)N2CCN(C(C)=O)CC2)ccc1Nc1ncc(Cl)c(-c2cnn(C(C)C)c2)n1 [Compound 78, 1-(4-(4-((5-chloro-4-(1-isopropyl-1H-pyrazol-4-yl)pyrimidin-2-yl)amino)-3-methoxybenzoyl)piperazin-1-yl)ethan-1-one]
remaining binding at 0.01 µM: < 50% | remaining binding at 0.05 µM: < 10%

COc1cc(C(=O)N2CCN(C)CC2)ccc1Nc1ncc(Cl)c(-c2cnn(C(C)(C)C)c2)n1 [Compound 85, (4-((4-(1-(tert-butyl)-1H-pyrazol-4-yl)-5-chloropyrimidin-2-yl)amino)-3-methoxyphenyl)(4-methylpiperazin-1-yl)methanone]
remaining binding at 0.01 µM: < 50% | remaining binding at 0.05 µM: < 30%

COc1cc(C(=O)NN2C(C)CCCC2C)ccc1Nc1ncc(Cl)c(-c2cnn(C(C)C)c2)n1 (stereo not shown) [Compound 167, 4-((5-chloro-4-(1-isopropyl-1H-pyrazol-4-yl)pyrimidin-2-yl)amino)-N-(2,6-dimethylpiperidin-1-yl)-3-methoxybenzamide]
remaining binding at 0.01 µM: ≥ 50% | remaining binding at 0.05 µM: < 30%

COc1cc(C(=S)N2CCN(C)CC2)c(F)cc1Nc1ncc(Cl)c(-c2cnn(C(C)C)c2)n1 [Compound 102, (4-((5-chloro-4-(1-isopropyl-1H-pyrazol-4-yl)pyrimidin-2-yl)amino)-2-fluoro-5-methoxyphenyl)(4-methylpiperazin-1-yl) methanethione]
remaining binding at 0.01 µM: < 50% | remaining binding at 0.05 µM: < 10%

COc1cc(C(=O)N2CCN(C(C)C)CC2)ccc1Nc1ncc(Cl)c(-c2cnn(C(C)C)c2)n1 [Compound 64, (4-((5-chloro-4-(1-isopropyl-1H-pyrazol-4-yl)pyrimidin-2-yl)amino)-3-methoxyphenyl)(4-isopropylpiperazin-1-yl)methanone]
remaining binding at 0.01 µM: < 30% | remaining binding at 0.05 µM: < 10%

COc1cc(C(=O)NCC2CCOC2)ccc1Nc1ncc(Cl)c(-c2cnn(C(C)C)c2)n1 (stereo not shown) [Compound 130, 4-((5-chloro-4-(1-isopropyl-1H-pyrazol-4-yl)pyrimidin-2-yl)amino)-3-methoxy-N-((tetrahydrofuran-3-yl)methyl)benzamide]
remaining binding at 0.01 µM: ≥ 50% | remaining binding at 0.05 µM: < 30%

COc1cc(C(=O)N2CCC(OC)CC2)ccc1Nc1ncc(Cl)c(-c2cnn(C(C)C)c2)n1 [Compound 76, (4-((5-chloro-4-(1-isopropyl-1H-pyrazol-4-yl)pyrimidin-2-yl)amino)-3-methoxyphenyl)(4-methoxypiperidin-1-yl)methanone]
remaining binding at 0.01 µM: < 50% | remaining binding at 0.05 µM: < 30%

COc1cc(C(=O)N2CCN(C)CC2)ccc1Nc1ncc(Cl)c(-c2cnn(C)c2)n1 [Compound 61, (4-((5-chloro-4-(1-methyl-1H-pyrazol-4-yl)pyrimidin-2-yl)amino)-3-methoxyphenyl)(4-methylpiperazin-1-yl)methanone]
remaining binding at 0.01 µM: < 50% | remaining binding at 0.05 µM: < 30%

CC(C)n1cc(-c2nc(Nc3ccc(C(=O)N4CCN(C)CC4)cc3OC(F)F)ncc2Cl)cn1 [Compound 108, (4-((5-chloro-4-(1-isopropyl-1H-pyrazol-4-yl)pyrimidin-2-yl)amino)-3-(difluoromethoxy)phenyl)(4-methylpiperazin-1-yl)methanone]
remaining binding at 0.01 µM: ≥ 50% | remaining binding at 0.05 µM: < 30%

CC(C)n1cc(-c2nc(Nc3ccc(C(=O)N4CCOCC4)cc3OC(F)F)ncc2Cl)cn1 [Compound 105, (4-((5-chloro-4-(1-isopropyl-1H-pyrazol-4-yl)pyrimidin-2-yl)amino)-3-(difluoromethoxy)phenyl)(morpholino)methanone]
remaining binding at 0.01 µM: < 50% | remaining binding at 0.05 µM: < 30%

COc1cc(C(=O)NCCS(C)(=O)=O)ccc1Nc1ncc(Cl)c(-c2cnn(C(C)C)c2)n1 [Compound 192, 4-((5-chloro-4-(1-isopropyl-1H-pyrazol-4-yl)pyrimidin-2-yl)amino)-3-methoxy-N-(2-(methylsulfonyl)ethyl)benzamide]
remaining binding at 0.01 µM: ≥ 50% | remaining binding at 0.05 µM: < 30%

Source: patent publication US20240254103A9, “NOVEL PYRIMIDINE DERIVATIVE, AND COMPOSITION FOR PREVENTING OR TREATING NEURODEGENERATIVE DISEASES AND CANCER, COMPRISING SAME” (WHAN IN PHARMACEUTICAL CO., LTD., priority 2020, published 2024)
